Test results: US8242105B2, “Structural mimetics of proline-rich peptides and the pharmaceutical use thereof” (priority 2006, dated 2012)
No end group written: not given here.

Columns and labels:
VASP/EVH1 domain [1] = molecular target: T1, VASP/EVH1 domain (Homo sapiens, UniProt P50552); assay: Fluorescence titration of ligand peptides; type: binding
T1 construct: the EVH1 domain of a completely ^15N-labelled VASP protein
Method: Using the synthetic compound 85, ligand peptides with partially or completely replaced proline sequences were synthesized and investigated for their interaction with the EVH1 domain (pp=building block 85). […] The binding affinities were determined using NMR titration, the kinetic Biacore method, or by means of fluorescence titration.

VASP/EVH1 domain [2] = molecular target: T1, VASP/EVH1 domain; assay: NMR titration (15N-1H-HSQC) of the VASP/EVH1 domain with ligand peptide; details: Binding affinity (NMR), VASP/EVH1 domain in solution; KD from change in chemical shift versus ligand peptide concentration
Method: The interactions between the EVH1 domain of a completely ^15N-labelled VASP protein and the ligand peptides I and II was elucidated using multidimensional NMR-spectroscopic methods. To this end, the EVH1 domain in a solution was titrated with varying amounts of ligand peptide and investigated by recording ^15N-^1H-HSQC-NMR spectra each time. In the event of positive binding interaction, increasing the ligand concentration step by step (10, 20, 50, 100, 200, 500 and 1000 μM) results in a clearly recognizable shift of some domain signals, which can be used to calculate values for the binding constant at a later point in time.
A continuous equilibrium, i.e. [EVH1]-ligand (bound) ? [EVH1]+ligand (unbound), is present in solution so that, depending on the rate of interchange of the ligands, different NMR spectra are obtained (in analogy to the signals of —OH and —NH in the one-dimensional range).
When correlating the changes in the chemical shift of the cross-peaks with the binding strength between domain and ligand peptide, it is possible to calculate values for the binding constant by plotting the change in shift Δδ versus the ligand peptide concentration.

VASP/EVH1 domain [3] = molecular target: T1, VASP/EVH1 domain; assay: Biacore (surface plasmon resonance) binding of ligand peptides; details: Binding affinity (Biacore), initial measurements yet remaining to be verified
Source text: In this method the domain protein is immobilized on the surface of a sensor chip, while a solution of ligand peptide flows across the surface. By measuring the surface plasmon resonance that causes the refractive index to change, it is possible to monitor the binding kinetics in real-time so that the association and dissociation constants can also be determined.

Mena/EVH1 domain = Mena/EVH1 domain (Homo sapiens, UniProt Q8N8S7); assay: biochemical
Mena/EVH1 domain, sequence (Q8N8S7 1-111 limits assumed): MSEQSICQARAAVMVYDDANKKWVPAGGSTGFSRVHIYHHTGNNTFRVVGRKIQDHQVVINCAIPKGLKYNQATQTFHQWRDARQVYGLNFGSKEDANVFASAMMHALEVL
Source text: (§1) Using a series of different test ligand peptides, it was also possible to gain an overview over the binding affinities.

VASP/EVH1 domain [4] = molecular target: T1, VASP/EVH1 domain; type: binding
Source text: This can be seen in FIG. 2 wherein the class I EVH1 domain of the human VASP protein was investigated together with a short section from the ActA peptide (332[sequence]344).
as §1

T1 sequence (P50552 2-113): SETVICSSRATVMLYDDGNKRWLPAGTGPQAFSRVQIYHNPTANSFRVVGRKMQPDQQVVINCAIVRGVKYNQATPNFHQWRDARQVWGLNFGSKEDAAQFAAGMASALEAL

Compound: CC(C)C[C@H](NC(=O)[C@H](CCC(=O)O)NC(=O)[C@H](CC(=O)O)NC(=O)[C@H](CCC(=O)O)NC(=O)[C@@H](NC(=O)[C@@H]1CC[C@@H]2C=C[C@H]3CCN(C(=O)[C@@H]4CCCN4C(=O)[C@@H]4CCCN4C(=O)[C@H](Cc4ccccc4)NC(=O)[C@H](CCC(=O)O)NC(=O)[C@H](Cc4ccccc4)NC(=O)[C@@H](N)CO)[C@@H]3C(=O)N21)[C@@H](C)O)C(=O)O [SFEFPPppTEDEL]
- Kd (VASP/EVH1 domain [1]): 26 ± 5 µM

Compound: CC(C)C[C@H](NC(=O)[C@H](CCC(=O)O)NC(=O)[C@H](CC(=O)O)NC(=O)[C@H](CCC(=O)O)NC(=O)[C@@H](NC(=O)[C@@H]1CCCN1C(=O)[C@@H]1CC[C@@H]2C=C[C@H]3CCN(C(=O)[C@@H]4CCCN4C(=O)[C@H](Cc4ccccc4)NC(=O)[C@H](CCC(=O)O)NC(=O)[C@H](Cc4ccccc4)NC(=O)[C@@H](N)CO)[C@@H]3C(=O)N21)[C@@H](C)O)C(=O)O [SFEFPppPTEDEL]
- Kd (VASP/EVH1 domain [2]): 20 to 35 µM
- Kd (VASP/EVH1 domain [3]): 29.3 to 33.3 µM
- Kd (VASP/EVH1 domain [1]): 47 ± 14 µM

Compound: CC(C)C[C@H](NC(=O)[C@H](CCC(=O)O)NC(=O)[C@H](CC(=O)O)NC(=O)[C@H](CCC(=O)O)NC(=O)[C@@H](NC(=O)[C@@H]1CCCN1C(=O)[C@@H]1CCCN1C(=O)[C@@H]1CC[C@@H]2C=C[C@H]3CCN(C(=O)[C@H](Cc4ccccc4)NC(=O)[C@H](CCC(=O)O)NC(=O)[C@H](Cc4ccccc4)NC(=O)[C@@H](N)CO)[C@@H]3C(=O)N21)[C@@H](C)O)C(=O)O [SFEFppPPTEDEL]
- Kd (VASP/EVH1 domain [1]): 82 ± 30 µM

Compound: CC(C)C[C@H](NC(=O)[C@H](CCC(=O)O)NC(=O)[C@H](CC(=O)O)NC(=O)[C@H](CCC(=O)O)NC(=O)[C@@H](NC(=O)[C@@H]1CC[C@@H]2C=C[C@H]3CCN(C(=O)[C@@H]4CC[C@@H]5C=C[C@H]6CCN(C(=O)[C@H](Cc7ccccc7)NC(=O)[C@H](CCC(=O)O)NC(=O)[C@H](Cc7ccccc7)NC(=O)[C@@H](N)CO)[C@@H]6C(=O)N54)[C@@H]3C(=O)N21)[C@@H](C)O)C(=O)O [SFEFppppTEDEL]
- Kd (VASP/EVH1 domain [1]): 45 ± 15 µM

Compound: FPPPPT [FPPPPT]
- Kd (Mena/EVH1 domain): 417 µM
- binding affinity KD (VASP/EVH1 domain [4]): no measurable affinity
